Where a SMILES comes first, the peptide text is derived from it. The star is where a group is joined. Cbz = O=C(OCc1ccccc1)*

The subject of test [1] is proteasome. The test can be described thus: ZSCAN4 accumulation after proteasome inhibition (immunoblot). Format: cell-based, human. On the procedure: Nuclear proteins were fractionated using Nuclear Extraction Kit following manufacture's protocol (Active Motif). Total cell lysate was prepared in RIPA buffer and sonicated. For the detection of endogenous ZSCAN4 in Tu167 cells, cells were harvested by accutase (Millipore) and Cytoskeleton buffer (10 mM PIPES, 300 mM sucrose, 100 mM NaCl, 3 mM MgCl2, 1 mM EGTA and 0.5% Triton X100) was used to fractionate cytosolic proteins. Then, pellets were lysed in urea solution (8 M Urea in 0.01 Tris pH 8+0.1 M NaH2PO4) and sonicated. Nuclear proteins were electrophoresed in 8% polyacrylamide gels and transferred to a PVDF membrane. Immunoblot was performed using the following primary antibodies: ZSCAN4 (Origene; 1:1000), GAPDH (Santa Cruz; 1:5000), Actin (Sigma; 1:500), Lamin B (Santa Cruz; 1:2000) and with HRP (horseradish peroxidase) conjugated secondary antibodies (Millipore; 1:5000). Protein bands were detected using Pierce ECL Western Blotting Substrate (Thermo Scientific). SuperSignal West Femto (Thermo Scientific) was used to detect endogenous ZSCAN4 in Tu167 cells. All immunoblots shown represent at least 3 independent experiments.
WT Tu167 cells were treated with indicated concentration of MG132 for 3-12 h. Cells treated with vehicle only were used as controls. Nuclear protein was isolated using urea extraction buffer. Then, 100 μg of nuclear lysate was diluted in IP-RIPA buffer with 0.1% SDS and denatured by heating to 90° C. for 10 minutes. Samples were taken for co-immunoprecipitation and immunoblot analyses.
This prompted examination of the UPS. tet-ZSCAN4 cells were incubated with the proteasome inhibitor MG132 at multiple time points. […] Furthermore, we show a time dependence (FIG. 18C) and a dose response (FIG. 18D) to proteasome inhibition by MG132.
To exclude that the response was specific to the exogenous ZSCAN4 induction, wild type (WT) Tu167 cells were treated with 5 uM MG132 for 0-12 h.

Test [2] has as its system proteasome. The experiment in a line: ZSCAN4 / K48 ubiquitin co-localization by confocal microscopy. Format: cell-based, human. The settings on record: WT Tu167 cells, 5 h; untreated about 5%. As to the method: Cells were fixed in ice cold methanol/acetic acid (3:1). The fixed cells were dropped on microscope slides. Antigen retrieval was performed followed by blocking for 10 min at room temperature. Primary antibody was incubated overnight at 4° C. for the following antigens: ZSCAN4 (Origene, 1:1000) and Ubiquitin Lysine 48 (Millipore 1: 2000). The slides were washed and incubated with secondary antibodies conjugated with Alexa-488 or 568 at room temperature for 1 h and then treated with DAPI and To-Pro-3 to stain the nuclei. Slides were mounted and visualized by a Zeiss 510-confocal microscope. Co-localization analyses were performed by ImageJ software (Schneider et al., 2012);
To further validate the lysine 48 polyubiquitination of ZSCAN4 protein, WT Tu167 cells were treated with or without MG132 for 5 h and co-immunostained for anti-K48-Ub and anti-ZSCAN4 (FIG. 19C).

The test system of test [3] is autophagy in tet-ZSCAN4 Tu167 cells. The experiment in a line: Autophagy pathway assay (immunoblot). Format: cell-based, human. The settings on record: 5 nM Bafilomycin A1 or 25 μM Chloroquine. On the procedure:
tet-ZSCAN4 Tu167 cells were treated for 24 h with Dox and then autophagy inhibitors: 5 nM of Bafilomycin A1 or 25 μM of Chloroquine (Sigma) were added for 24 h. Whole cell lysate (50 μg) in RIPA buffer was used on 8% SDS-PAGE analyzed by immunoblot to visualize the following antigens: anti-ZSCAN4 (1:1000; Origene), anti-p62 (1:5000; Sigma), anti-LC3 (1:1000; CellSignaling Technology), Anti-Beta Actin (1:10,000; Millipore). All data shown represent at least 3 independent experiments.
A general note: Immunoblotting shows a protein as a band on a membrane.

Test [4] concerns the target T1, telomerase (UniProt O14746 1-1132, limits assumed).
T1 construct: The tie to the hTERT protein subunit is my reading; also called hTERT
The test can be described thus: ZSCAN4 complex analysis (ZSCAN4 immunoprecipitation followed by mass spectrometry).

T1 sequence (O14746 whole entry): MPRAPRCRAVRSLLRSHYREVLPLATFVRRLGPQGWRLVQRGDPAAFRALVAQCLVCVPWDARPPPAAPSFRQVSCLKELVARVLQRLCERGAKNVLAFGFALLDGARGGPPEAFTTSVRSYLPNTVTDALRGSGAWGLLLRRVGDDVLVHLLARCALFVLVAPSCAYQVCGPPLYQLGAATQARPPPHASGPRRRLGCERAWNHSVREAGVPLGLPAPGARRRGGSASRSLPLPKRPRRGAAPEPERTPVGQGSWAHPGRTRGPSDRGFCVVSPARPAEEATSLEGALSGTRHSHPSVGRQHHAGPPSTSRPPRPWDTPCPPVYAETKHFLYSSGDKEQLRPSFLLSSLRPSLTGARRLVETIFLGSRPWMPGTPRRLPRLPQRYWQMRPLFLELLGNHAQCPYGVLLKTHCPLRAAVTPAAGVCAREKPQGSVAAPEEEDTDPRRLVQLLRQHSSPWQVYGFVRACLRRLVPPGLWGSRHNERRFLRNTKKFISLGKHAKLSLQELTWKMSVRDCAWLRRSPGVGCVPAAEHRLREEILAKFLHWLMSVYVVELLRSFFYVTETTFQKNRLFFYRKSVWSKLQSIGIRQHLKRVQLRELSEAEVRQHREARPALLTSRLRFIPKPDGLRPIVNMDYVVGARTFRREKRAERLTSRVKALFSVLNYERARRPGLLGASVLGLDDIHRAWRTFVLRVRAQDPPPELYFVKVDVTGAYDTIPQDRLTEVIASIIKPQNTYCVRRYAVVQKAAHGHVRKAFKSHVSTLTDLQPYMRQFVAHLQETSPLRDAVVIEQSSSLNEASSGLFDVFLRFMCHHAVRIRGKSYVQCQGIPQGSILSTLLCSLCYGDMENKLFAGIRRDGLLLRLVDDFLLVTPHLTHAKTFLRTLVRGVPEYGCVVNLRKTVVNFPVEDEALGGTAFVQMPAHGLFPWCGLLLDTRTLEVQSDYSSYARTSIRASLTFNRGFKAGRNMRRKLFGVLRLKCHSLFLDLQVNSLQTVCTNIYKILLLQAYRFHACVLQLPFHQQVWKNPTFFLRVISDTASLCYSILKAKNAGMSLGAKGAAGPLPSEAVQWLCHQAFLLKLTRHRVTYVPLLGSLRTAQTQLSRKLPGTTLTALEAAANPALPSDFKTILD

Take `CC(C)C[C@@H](C=O)NC(=O)[C@H](CC(C)C)NC(=O)[C@H](CC(C)C)NC(=O)OCc1ccccc1` [MG132] (Cbz-Leu-Leu-Leu-aldehyde): the “ZSCAN4 accumulation versus dose” value in test [1] (tet-ZSCAN4 cells) is given as “dose response”. For the same molecule, the “ZSCAN4 accumulation over time” value in test [1] (tet-ZSCAN4 cells, multiple time points through 12 h) is reported as “time dependent accumulation of ZSCAN4”. The “endogenous ZSCAN4 level” value in test [1] (wild type Tu167 cells, 5 uM, 0-12 h) is “endogenous ZSCAN4 accumulates”. The “fraction of ZSCAN4 co-localized with K48-Ub relative to untreated” value in test [2] came out at 4 fold.

Take `CCN(CC)CCCC(C)Nc1ccnc2cc(Cl)ccc12` (stereo not drawn) [Chloroquine]: in test [3], the ZSCAN4 levels result was “remained unchanged”; the “p62 and LC-3 levels” value is “accumulate”.

Turning to `CO/C1=C\C(C)=C\[C@@H](C)[C@@H](O)[C@@H](C)C/C(C)=C/C=C/[C@H](OC)[C@@H]([C@@H](C)[C@@H](O)[C@H](C)[C@@]2(O)C[C@@H](O)[C@H](C)[C@@H](C(C)C)O2)OC1=O` [Bafilomycin A1], in test [3], the ZSCAN4 levels entry was “remained unchanged”; the “p62 and LC-3 levels” value is listed as “accumulate”.

B1: human ZSCAN4 (Zinc finger and SCAN domain containing 4) (other, UniProt Q8NAM6 1-433, looked up)
chain: MALDLRTIFQCEPSENNLGSENSAFQQSQGPAVQREEGISEFSRMVLNSFQDSNNSYARQELQRLYRIFHSWLQPEKHSKDEIISLLVLEQFMIGGHCNDKASVKEKWKSSGKNLERFIEDLTDDSINPPALVHVHMQGQEALFSEDMPLRDVIVHLTKQVNAQTTREANMGTPSQTSQDTSLETGQGYEDEQDGWNSSSKTTRVNENITNQGNQIVSLIIIQEENGPRPEEGGVSSDNPYNSKRAELVTARSQEGSINGITFQGVPMVMGAGCISQPEQSSPESALTHQSNEGNSTCEVHQKGSHGVQKSYKCEECPKVFKYLCHLLAHQRRHRNERPFVCPECQKGFFQISDLRVHQIIHTGKKPFTCSMCKKSFSHKTNLRSHERIHTGEKPYTCPFCKTSYRQSSTYHRHMRTHEKITLPSVPSTPEAS
notes: Immunoprecipitated from nuclear protein lysates; also called FLAG-ZSCAN4; tet-FLAG-ZSCAN4
With B1, in test [4], the binding result was “no binding”.
